# Data: paper PMC8952208, “Synthesis, Antiplasmodial, and Antileukemia Activity of Dihydroartemisinin–HDAC Inhibitor Hybrids as Multitarget Drugs” (Pharmaceuticals, 2022)
# Tests used:
# MOLM13 cells = assay: CellTiter-Glo cell viability assay, MOLM13; type: cell-based, human; conditions: for IC50: Homo sapiens, MOLM-13, AML, 72 h, CellTiter-Glo, n = 3; for Selectivity index range healthy fibroblasts vs MOLM13: SI = (healthy fibroblast IC50)/(leukemia cell line IC50), range over two fibroblasts
# Protocol: (§1) Healthy individually-derived fibroblasts were cultured in DMEM supplemented with 10% FCS. Regular cell line authentication was performed short tandem repeat (STR) analysis (DNA fingerprinting), followed by comparison with the original DSMZ cell line database.
# (§2) Cell viability assay was performed with leukemic cell lines after 72 h incubation with the respective inhibitors using ATP-based CellTiter-Glo luminescent assay (Promega, Madison, WI, USA).
# P. falciparum Dd2 = assay: microbe, parasite or virus in culture; type: cell-based; conditions: Plasmodium falciparum, DD2, 72 h, read-out: PfDd2 IC50
# Protocol: (§3) [38, 39] […] After three days of incubation at 37 °C, 5% CO2 and 5% O2 plates were frozen until analyzed by HRP2-ELISA. All compounds were evaluated in duplicate in at least two independent experiments. The IC50 was determined by nonlinear regression analysis of log concentration-response curves using the drc-package v3.0.1 [40] of R v4.0.5..
# P. falciparum 3D7 = assay: microbe, parasite or virus in culture; type: cell-based; conditions: Plasmodium falciparum, 3D7, 72 h; asexual blood stages, three days incubation; n ≥ 2 in duplicate, mean ± SD; read-out: Pf3D7 IC50
# Protocol: as §3
# Healthy Fibroblast 2 = assay: Cytotoxicity against healthy fibroblast 2; type: cell-based; conditions: Homo sapiens, healthy individually-derived fibroblasts
# Protocol: as §1, §2
# HL60 cells = assay: CellTiter-Glo cell viability assay, HL60; type: cell-based, human; conditions: for IC50: Homo sapiens, HL-60, AML, 72 h, CellTiter-Glo, n = 3; for Selectivity index range healthy fibroblasts vs HL60: SI = (healthy fibroblast IC50)/(leukemia cell line IC50), range over two fibroblasts
# Protocol: as §1, §2
# HPBALL cells = assay: CellTiter-Glo cell viability assay, HPBALL; type: cell-based, human; conditions: for IC50: Homo sapiens, HPBALL, T-ALL, 72 h, CellTiter-Glo, n = 3; for Selectivity index range healthy fibroblasts vs HPB ALL: SI = (healthy fibroblast IC50)/(leukemia cell line IC50), range over two fibroblasts
# Protocol: as §1, §2
# K562 cells = assay: Annexin V-PI staining; type: cell-based, human; conditions: 48 h, 0.4 µM or 0.8 µM
# Protocol: To evaluate the induction of apoptosis upon respective inhibitor treatment, K562 cells were incubated (48 h) with inhibitors (0.4 µM or 0.8 µM) or with vehicle control (DMSO). The induction of apoptosis/necrosis was analyzed by measuring hypodiploid DNA content, mitochondrial potential, and exposure of phosphatidylserine after annexin/propidium iodide (PI) staining kit (BD, Franklin lakes, NJ, USA) using FACS.
# human HDAC6 (hHDAC6) = target: T1, human HDAC6 (hHDAC6) (Homo sapiens, UniProt Q9UBN7); assay: In vitro human HDAC6 assay (ZMAL substrate); type: biochemical; conditions: for SI 1/6: Selectivity Index = (hHDAC1 IC50)/(hHDAC6 IC50)
# T1 construct: purchased BPS Bioscience Inc. 50006
# T1 sequence (Q9UBN7 1-1215): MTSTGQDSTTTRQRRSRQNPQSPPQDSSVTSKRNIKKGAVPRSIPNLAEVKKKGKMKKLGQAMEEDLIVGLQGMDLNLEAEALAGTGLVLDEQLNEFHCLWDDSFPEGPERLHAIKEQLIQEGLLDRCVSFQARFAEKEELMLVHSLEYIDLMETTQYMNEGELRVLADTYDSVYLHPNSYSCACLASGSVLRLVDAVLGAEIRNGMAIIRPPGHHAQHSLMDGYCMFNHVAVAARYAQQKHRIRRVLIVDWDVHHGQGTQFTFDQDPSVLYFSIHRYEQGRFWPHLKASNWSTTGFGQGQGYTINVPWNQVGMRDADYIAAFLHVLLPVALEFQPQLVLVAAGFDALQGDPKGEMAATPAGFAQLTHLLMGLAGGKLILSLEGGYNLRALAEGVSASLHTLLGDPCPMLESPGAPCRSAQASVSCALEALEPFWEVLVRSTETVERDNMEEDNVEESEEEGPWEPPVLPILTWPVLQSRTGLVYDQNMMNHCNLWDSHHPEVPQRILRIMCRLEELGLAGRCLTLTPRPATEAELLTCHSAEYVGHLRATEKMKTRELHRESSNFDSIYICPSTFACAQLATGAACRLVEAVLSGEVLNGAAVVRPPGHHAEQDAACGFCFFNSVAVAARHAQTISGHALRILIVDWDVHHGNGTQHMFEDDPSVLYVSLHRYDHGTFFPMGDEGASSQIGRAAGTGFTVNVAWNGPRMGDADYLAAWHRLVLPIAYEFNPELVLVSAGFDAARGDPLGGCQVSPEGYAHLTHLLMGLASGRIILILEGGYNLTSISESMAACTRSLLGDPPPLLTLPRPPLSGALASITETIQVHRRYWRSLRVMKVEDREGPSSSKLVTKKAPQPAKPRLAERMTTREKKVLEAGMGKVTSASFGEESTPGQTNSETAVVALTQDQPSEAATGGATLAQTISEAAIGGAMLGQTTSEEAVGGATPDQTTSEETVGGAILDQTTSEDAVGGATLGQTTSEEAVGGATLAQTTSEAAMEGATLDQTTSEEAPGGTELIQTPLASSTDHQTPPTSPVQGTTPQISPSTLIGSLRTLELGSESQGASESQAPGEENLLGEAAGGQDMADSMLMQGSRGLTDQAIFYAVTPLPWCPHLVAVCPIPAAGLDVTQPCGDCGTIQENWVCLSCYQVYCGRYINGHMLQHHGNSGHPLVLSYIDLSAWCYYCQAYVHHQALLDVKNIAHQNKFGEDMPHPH
# Protocol: (§4) OptiPlate-96 black microplates (Perkin Elmer Inc., Waltham, MA, USA) were used with an assay volume of 50 µL. […] After an incubation time of 90 min, 50 µL of 0.4 mg/mL trypsin in trypsin buffer (50 mM Tris-HCl, pH 8.0, and 100 mM NaCl) was added, followed by further incubation at 37 °C for 30 min.
# human HDAC1 (hHDAC1) = target: T2, human HDAC1 (hHDAC1) (Homo sapiens, UniProt Q13547); assay: In vitro human HDAC1 assay (ZMAL substrate); type: biochemical
# T2 construct: purchased BPS Bioscience Inc. 50051
# T2 sequence (Q13547 whole entry): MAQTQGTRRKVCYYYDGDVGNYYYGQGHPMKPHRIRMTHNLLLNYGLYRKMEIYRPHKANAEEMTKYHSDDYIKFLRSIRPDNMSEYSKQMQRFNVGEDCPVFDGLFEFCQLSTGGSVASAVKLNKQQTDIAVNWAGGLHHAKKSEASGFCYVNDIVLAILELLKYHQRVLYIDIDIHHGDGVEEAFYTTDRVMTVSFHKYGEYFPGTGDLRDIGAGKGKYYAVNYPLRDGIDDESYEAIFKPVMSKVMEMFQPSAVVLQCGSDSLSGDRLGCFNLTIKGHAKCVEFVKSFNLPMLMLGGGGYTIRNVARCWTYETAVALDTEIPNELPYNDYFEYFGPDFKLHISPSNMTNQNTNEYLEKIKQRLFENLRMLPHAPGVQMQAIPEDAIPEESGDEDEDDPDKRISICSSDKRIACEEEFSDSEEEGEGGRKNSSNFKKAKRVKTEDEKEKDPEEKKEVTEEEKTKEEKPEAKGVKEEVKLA
# Protocol: as §4
# P. falciparum Dd2 R539T = assay: In vitro P. falciparum growth inhibition assay (HRP2), Dd2 R539T; type: cell-based; conditions: Plasmodium falciparum, DD2, 72 h, read-out: PfDd2 R539T IC50
# Protocol: Antiplasmodial activity of DHA–HDACi hybrids was evaluated against the asexual stages of the laboratory P. falciparum strains (3D7, chloroquine-sensitive strain, and Dd2, chloroquine-resistant strain, and Dd2 R539T (MRA-1255), provided by BEI Resources carrying a kelch13-mutation that conveys partial artemisinin resistance), using the histidine-rich protein 2 (HRP2) assay, as previously described. In brief: 96-well plates were precoated with the tested compounds in a three-fold serial dilution before ring-stage parasites were added in complete culture medium at a hematocrit of 1.5% and a parasitaemia of 0.05%. After three days of incubation at 37 °C, 5% CO2 and 5% O2 plates were frozen until analyzed by HRP2-ELISA. All compounds were evaluated in duplicate in at least two independent experiments. The IC50 was determined by nonlinear regression analysis of log concentration-response curves using the drc-package v3.0.1 [40] of R v4.0.5..
Compound,IC50 (MOLM13 cells) [nM],Selectivity index range healthy fibroblasts vs MOLM13 (MOLM13 cells),IC50 (P. falciparum Dd2) [nM],IC50 (P. falciparum 3D7) [nM],IC50 (Healthy Fibroblast 2) [nM],IC50 (HL60 cells) [nM],Selectivity index range healthy fibroblasts vs HL60 (HL60 cells),IC50 (HPBALL cells) [nM],Selectivity index range healthy fibroblasts vs HPB ALL (HPBALL cells),necrosis induction (annexin V/PI) (K562 cells),IC50 (human HDAC6 (hHDAC6)) [nM],SI 1/6 (human HDAC6 (hHDAC6)),IC50 (human HDAC1 (hHDAC1)) [nM],IC50 (P. falciparum Dd2 R539T) [nM],apoptosis induction (annexin V/PI) (K562 cells)
"C[C@H]1[C@@H](SCc2ccc(C(=O)NO)cc2)O[C@@H]2O[C@@]3(C)CC[C@H]4[C@H](C)CC[C@@H]1[C@@]24OO3 [(α)-7c, N-Hydroxy-4-((((3R,5aS,6R,8aS,9R,10R,12S,12aR)-3,6,9-trimethyldecahydro-12H-3,12-epoxy[1,2]dioxepino[4,3-i]isochromen-10-yl)thio)methyl)benzamide]",330 ± 110,23-39,3.4 ± 0.12,3.3 ± 1.4,7410 ± 1400,1020 ± 270,7-12,6720 ± 440,1.1-1.9,induced significant necrosis,36 ± 8,56,2000 ± 200,3.3 ± 2.2,
"C[C@H]1[C@H](SCc2ccc(C(=O)NO)cc2)O[C@@H]2O[C@@]3(C)CC[C@H]4[C@H](C)CC[C@@H]1[C@@]24OO3 [(β)-7c, N-Hydroxy-4-((((3R,5aS,6R,8aS,9R,10S,12S,12aR)-3,6,9-trimethyldecahydro-12H-3,12-epoxy[1,2]dioxepino[4,3-i]isochromen-10-yl)thio)methyl)benzamide]",380 ± 70,39-47,3.2 ± 0.02,3.6 ± 1.1,17800 ± 6040,2340 ± 460,6-8,12300 ± 570,1.2-1.4,,41 ± 9,68,2790 ± 140,2.6 ± 2,significantly induced apoptosis as compared to DHA
"C[C@@H]1CC[C@H]2[C@@H](C)C(OCc3ccc(/C=C/C(=O)NO)cc3)O[C@@H]3O[C@@]4(C)CC[C@@H]1[C@]32OO4 (stereo partly drawn) [Compound 7a, (E)-N-Hydroxy-3-(4-((((3R,5aS,6R,8aS,9R,12R,12aR)-3,6,9-trimethyldecahydro-12H-3,12-epoxy[1,2]dioxepino[4,3-i]isochromen-10-yl)oxy)methyl)phenyl)acrylamide]",220 ± 40,29-60,1.7 ± 0.92,2.6 ± 1.4,6340 ± 790,1330 ± 140,5-10,1360 ± 30,5-10,,187 ± 4,3,546 ± 0.3,1.9 ± 1.4,significantly induced apoptosis as compared to DHA
"C[C@H]1[C@@H](O)O[C@@H]2O[C@@]3(C)CC[C@H]4[C@H](C)CC[C@@H]1[C@@]24OO3 [DHA, dihydroartemisinin]",690 ± 170,,1.8 ± 0.02,3 ± 2.7,> 25000,3570 ± 1040,,9930 ± 1510,,,> 10000,,> 10000,,
